Assay results reported in US20140079632A1, “ACTIVITY-BASED PROBES FOR THE UROKINASE P[…]” (UNIVERSITEIT ANTWERPEN, priority 2011, published 2014).

Legend:
Assay type in all cases: biochemical
uPA [1] = target: T1, uPA (Homo sapiens, UniProt P00749); experiment: uPA inhibition: in vitro evaluation, IC50 with chromogenic substrate Biophen CS-61(44); conditions: 15 min preincubation at 37° C.; Tris buffer pH 8.8; 250 μM substrate
T1 construct: purchased Nodia
Experimental: Enzymatic activity was measured at 37° C. in a Spectramax 340 (Molecular Devices) microtiter plate reader using the chromogenic substrate Biophen CS-61(44) (LpyroGlu-Gly L-Arg-p-NA.HCl), with a Km of 80 μM.
(§1) The substrate and human enzyme were obtained from Nodia. The reaction was monitored at 405 nm, and the initial rate was determined between 0 and 0.25 absorbance units in 20 min. The reaction mixture contained 250 μM substrate and approximately 1 mU of enzyme in 145 μL of buffer in a final volume of 200 μL. A 50 mM Tris buffer, pH 8.8, was used. From each inhibitor concentration, 5 μL was added, obtaining a final concentration from 0 to 250 μM in a total volume of 0.2 mL. Activity measurements were routinely performed in duplicate. […] IC50 values were obtained by fitting the data with the four-parameter logistics equation using Grafit 5.
where s=slope factor, v=rate, I0=inhibitor concentration, and range=the fitted uninhibited value minus the background. The equation assumes the y falls with increasing x.
(§2) Inhibitor stock solutions were prepared in DMSO and stored at −20° C. Because the compounds described in this paper completely inactivate uPA following pseudofirst-order kinetics, the IC50 value is inversely correlated with the second-order rate constant of inactivation. For a simple pseudofirst-order inactivation process, the activity after incubation with inhibitor (vi) varies with the inhibitor concentration (i), as described in the following equation: […]

uPA [2] = target: T1, uPA; experiment: uPA inactivation kinetics from progress curves (kobs versus inhibitor concentration, kapp); conditions: 250 μM substrate, 37° C.
Experimental: as §2
where vo is the activity in absence of inhibitor, k is the second-order rate constant of inactivation, and t is the time. The inactivation rate constant was determined from the time course of inhibition.
The inhibitor was mixed with the substrate (250 μM final concentration), and the buffer solution with the enzyme was added at the time zero. The inhibitor concentrations were chosen to obtain total inhibition of the enzyme within 20 min. The progress curves show the absorbance of p-nitroanilide produced as a function of time. Initially, no inhibitor is bound to the enzyme, and the tangent to the progress curve (dA/dt) is proportional to the concentration of the free enzyme. The concentration of free enzyme decreases over time due to the kinetics of inhibitor binding, as described above. Progress curves were recorded in pseudofirst-order conditions ([I]0>>[E]0) and with less than 10% conversion of the substrate during the entire time course. In these conditions, dA/dt decreases exponentially with time. The progress curves were fitted with the integrated rate equation to yield a value for kobs, a pseudofirst-order rate constant
At=v0[1−e^−k^obs^t]/kobs+A0
where At=absorbance at time t, A0=absorbance at time zero, and v0=uninhibited initial rate.
The apparent second-order rate constant (kapp) was calculated from the slope of the linear part of the plot of kobs versus the inhibitor concentration ([I]0). In case of competition between the inhibitor and the substrate, kapp is smaller than the “real” second order rate constant k discussed above because a certain fraction of the enzyme is present as an enzyme-substrate complex. kapp depends on the substrate concentration used in the experiment, as described by Lambeir et al.^40 For most final compounds, the kobs versus [I]0 plot was not linear, but could be fitted with a hyperbolic function: kobs=k2[I]0/(K1+[I]0) (two step mechanism). Where K1 is the dissociation constant of the reversible enzyme-inhibitor complex and k2 is the first-order rate constant associated with irreversible modification of the enzyme. A kapp could be calculated as k2/K1.

tPA (recombinant) = target: T2, tPA (recombinant) (Homo sapiens, UniProt P00750); experiment: Selectivity: tPA inhibition, substrate Biophen CS-05(88); conditions: 15 min preincubation; Tris buffer pH 8.3; 1.25 mM substrate
T2 construct: purchased Nodia
Experimental: as §1, with “The reaction mixture contained 250 μM substrate and approximately 1 mU of enzyme in 145 μL of buffer in a final volume of 200 μL.” left out
(§3) The IC50 values for plasmin (from human plasma, Sigma), tPA (recombinant, Nodia), thrombin (from human plasma, Sigma), and FXa were determined in the same way as for uPA.
(§4) For tPA and thrombin, Tris buffer, pH 8.3, was used, for FXa, Tris buffer, pH 8.3, for plasmin, Tris buffer, pH 7.4, was used.

[3] = target: T3, thrombin (from human plasma) (Homo sapiens, UniProt P00734); experiment: Selectivity: thrombin inhibition, substrate Biophen CS-21(66); conditions: 15 min preincubation; Tris buffer pH 8.3; 580 μM substrate
T3 construct: thrombin (from human plasma, Sigma); purchased Sigma; host or cells: human plasma
Experimental: as §1, with “The reaction mixture contained 250 μM substrate and approximately 1 mU of enzyme in 145 μL of buffer in a final volume of 200 μL.” left out
as §3, §4

[4] = target: T4, plasmin (from human plasma) (Homo sapiens, UniProt P00747); experiment: Selectivity: plasmin inhibition, substrate Biophen CS-21(66); conditions: 15 min preincubation; Tris buffer pH 7.4; 580 μM substrate
T4 construct: purchased Sigma; host or cells: human plasma
Experimental: as §1, with “The reaction mixture contained 250 μM substrate and approximately 1 mU of enzyme in 145 μL of buffer in a final volume of 200 μL.” left out
as §3, §4

FXa = FXa (Homo sapiens, UniProt P00742); experiment: Selectivity: FXa inhibition, substrate Biophen CS-11(32); conditions: for FXa % (I) @ 250: at 250 (μM); for IC50: 15 min preincubation, Tris buffer pH 8.3, 522 μM substrate
[5] = asterisked: compound showed a two-step mechanism, kapp calculated as k2/K1
[6] = apparent second-order rate constant from slope of kobs versus [I]0, no asterisk

T2 sequence (P00750 36-562, species assumed): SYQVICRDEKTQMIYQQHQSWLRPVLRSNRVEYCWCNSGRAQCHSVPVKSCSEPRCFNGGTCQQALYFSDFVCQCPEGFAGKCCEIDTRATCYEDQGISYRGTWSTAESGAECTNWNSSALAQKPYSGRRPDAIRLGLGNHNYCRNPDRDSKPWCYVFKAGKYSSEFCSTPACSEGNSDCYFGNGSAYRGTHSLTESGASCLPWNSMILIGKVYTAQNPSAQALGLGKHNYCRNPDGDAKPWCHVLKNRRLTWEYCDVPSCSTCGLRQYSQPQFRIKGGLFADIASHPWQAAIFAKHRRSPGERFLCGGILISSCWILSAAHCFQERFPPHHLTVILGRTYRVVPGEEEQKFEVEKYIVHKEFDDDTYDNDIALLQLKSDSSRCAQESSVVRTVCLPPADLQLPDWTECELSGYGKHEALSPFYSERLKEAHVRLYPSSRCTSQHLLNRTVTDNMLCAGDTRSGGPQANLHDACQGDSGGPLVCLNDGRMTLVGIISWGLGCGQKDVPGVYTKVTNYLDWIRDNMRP
T4 sequence (P00747 581-810 limits assumed): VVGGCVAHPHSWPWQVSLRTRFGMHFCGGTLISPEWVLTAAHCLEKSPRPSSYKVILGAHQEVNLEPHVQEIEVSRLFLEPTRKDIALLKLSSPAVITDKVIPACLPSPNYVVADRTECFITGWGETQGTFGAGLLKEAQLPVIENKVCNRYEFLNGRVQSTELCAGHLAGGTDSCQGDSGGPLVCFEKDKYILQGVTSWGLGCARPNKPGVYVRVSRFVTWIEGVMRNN
T4 sequence (P00747 97-580 partner limits assumed): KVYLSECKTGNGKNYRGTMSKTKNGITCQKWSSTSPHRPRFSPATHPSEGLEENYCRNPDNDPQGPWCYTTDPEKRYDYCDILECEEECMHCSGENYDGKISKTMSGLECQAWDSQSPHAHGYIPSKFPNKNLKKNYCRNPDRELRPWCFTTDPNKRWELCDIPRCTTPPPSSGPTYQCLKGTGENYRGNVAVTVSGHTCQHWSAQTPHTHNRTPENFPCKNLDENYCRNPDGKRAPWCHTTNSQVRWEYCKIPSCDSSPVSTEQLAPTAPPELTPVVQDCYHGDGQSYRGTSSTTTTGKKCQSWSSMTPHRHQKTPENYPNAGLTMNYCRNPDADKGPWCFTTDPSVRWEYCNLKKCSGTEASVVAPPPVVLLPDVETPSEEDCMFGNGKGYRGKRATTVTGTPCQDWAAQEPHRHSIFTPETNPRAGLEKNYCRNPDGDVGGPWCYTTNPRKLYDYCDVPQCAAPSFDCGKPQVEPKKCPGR
Sequence of FXa (P00742 235-488 limits assumed): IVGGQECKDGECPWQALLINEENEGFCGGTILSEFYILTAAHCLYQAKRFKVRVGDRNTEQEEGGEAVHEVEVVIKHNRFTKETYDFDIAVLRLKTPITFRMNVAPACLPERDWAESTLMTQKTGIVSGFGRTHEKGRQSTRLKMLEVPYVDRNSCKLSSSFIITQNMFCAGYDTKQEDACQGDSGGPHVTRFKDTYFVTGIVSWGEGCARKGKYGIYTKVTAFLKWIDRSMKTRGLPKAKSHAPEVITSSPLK
Sequence of FXa (P00742 41-179 partner limits assumed): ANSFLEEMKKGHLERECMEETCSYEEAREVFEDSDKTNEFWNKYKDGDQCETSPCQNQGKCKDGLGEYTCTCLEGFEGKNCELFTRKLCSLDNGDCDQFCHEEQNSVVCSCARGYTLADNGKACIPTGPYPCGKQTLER

Molecule	IC50 (uPA [1])	uPA: kapp (uPA [2]; [5])	IC50 (tPA (recombinant))	IC50 [3]	IC50 [4]	FXa % (I) @ 250 (FXa)	uPA: kapp (uPA [2]; [6])	IC50 (FXa)
O=C(O)C(F)(F)F.[N-]=[N+]=NCCOCCOC(=O)NC(Cc1ccc(NC(=N)N)cc1)P(=O)(Oc1ccccc1)Oc1ccccc1 (stereo not drawn) [Intermediate 60, 2-(2-azidoethoxy)ethyl 1-(diphenoxyphosphoryl)-2-(4-guanidinophenyl)ethyl carbamate 2,2,2-trifluoroacetate]	0.0052 ± 0.001 µM	19 × 10^3 ± 8 × 10^3 * M^−1 s^−1	56 ± 53 µM	11.8 ± 0.6 µM	7.9 ± 0.3 µM	57% @ 250		
CCN(CC)c1ccc2c(-c3ccccc3C(=O)N3CCN(C(=O)CCCCCCCn4cc(CCCOC(=O)NC(Cc5ccc(NC(=N)N)cc5)P(=O)(Oc5ccc(NC(C)=O)cc5)Oc5ccc(NC(C)=O)cc5)nn4)CC3)c3ccc(=[N+](CC)CC)cc-3oc2c1.O=C(O)C(F)(F)F.[Cl-] (stereo not drawn) [Final compound 5, 2,2,2-trifluoroacetic acid, N-(9-(2-(4-(8-(4-(3-(((1-(bis(4-acetamidophenoxy)phosphoryl)-2-(4-guanidinophenyl)ethyl)carbamoyl)oxy)propyl)-1H-1,2,3-triazol-1-yl)octanoyl)piperazine-1-carbonyl)phenyl)-6-(diethylamino)-3H-xanthen-3-ylidene)-N-ethylethanaminium chloride]	0.022 ± 0.002 µM	52 × 10^2 ± 1 × 10^2 * M^−1 s^−1	> 62 µM	5.2 ± 0.2 µM	5.6 ± 1.5 µM	90% @ 250		
O=C(O)C(F)(F)F.[N-]=[N+]=NCCOCCOCCOC(=O)NC(Cc1ccc(NC(=N)N)cc1)P(=O)(Oc1ccccc1)Oc1ccccc1 (stereo not drawn) [Intermediate 61, 2-(2-(2-azidoethoxy)ethoxy)ethyl 1-(diphenoxyphosphoryl)-2-(4-guanidinophenyl)ethylcarbamate 2,2,2-trifluoroacetate]	0.015 ± 0.002 µM	10 × 10^3 ± 4 × 10^3 * M^−1 s^−1		13 µM	5.7 ± 0.6 µM	51% @ 250		
C#CCOCCOC(=O)NC(Cc1ccc(NC(=N)N)cc1)P(=O)(Oc1ccccc1)Oc1ccccc1.O=C(O)C(F)(F)F (stereo not drawn) [Intermediate 55, 2-(prop-2-ynyloxy)ethyl 1-(diphenoxyphosphoryl)-2-(4-guanidinophenyl)ethyl carbamate 2,2,2-trifluoroacetate]	0.0088 ± 0.0008 µM	19 × 10^3 ± 4 × 10^3 * M^−1 s^−1	66 ± 13 µM	33 ± 4 µM	11 ± 1 µM	50% @ 250		
N=C(N)Nc1ccc(CC(NC(=O)OCCCc2cn(CCOCCOCCOCCNC(=O)CCCC[C@@H]3SC[C@@H]4NC(=O)N[C@@H]43)nn2)P(=O)(Oc2ccccc2)Oc2ccccc2)cc1.O=C(O)C(F)(F)F (stereo partly drawn) [Final compound 7, 3-(1-(13-oxo-17-((3aS,4S,6aR)-2-oxohexahydro-1H-thieno[3,4-d]imidazol-4-yl)-3,6,9-trioxa-12-azaheptadecyl)-1H-1,2,3-triazol-4-yl)propyl (1-(diphenoxyphosphoryl)-2-(4-guanidinophenyl)ethyl)carbamate 2,2,2-trifluoroacetate]	0.0156 ± 0.001 µM	86 × 10^2 ± 10 × 10^2 * M^−1 s^−1	58 ± 6 µM	14.1 ± 0.3 µM	4.7 ± 0.1 µM	73% I @ 250 ^		
O=C(O)C(F)(F)F.[N-]=[N+]=NCCOCCOCCOCCOC(=O)NC(Cc1ccc(NC(=N)N)cc1)P(=O)(Oc1ccccc1)Oc1ccccc1 (stereo not drawn) [Intermediate 62, 2-(2-(2-(2-azidoethoxy)ethoxy)ethoxy)ethyl 1-(diphenoxyphosphoryl)-2-(4-guanidinophenyl)ethylcarbamate 2,2,2-trifluoroacetate]	0.015 ± 0.002 µM	9 × 10^3 ± 4 × 10^3 * M^−1 s^−1	70 ± 11 µM	29 ± 5 µM	9 ± 0.7 µM	48% @ 250		
CCN(CC)c1ccc2c(-c3ccccc3C(=O)N3CCN(C(=O)CCCCCCCn4cc(COCCOCCOC(=O)NC(Cc5ccc(NC(=N)N)cc5)P(=O)(Oc5ccccc5)Oc5ccccc5)nn4)CC3)c3ccc(=[N+](CC)CC)cc-3oc2c1 (stereo not drawn) [Final compound 2, 2,2,2-trifluoroacetic acid, N-(6-(diethylamino)-9-(2-(4-(8-(4-(11-(diphenoxyphosphoryl)-12-(4-guanidinophenyl)-9-oxo-2,5,8-trioxa-10-azadodecyl)-1H-1,2,3-triazol-1-yl)octanoyl)piperazine-1-carbonyl)phenyl)-3H-xanthen-3-ylidene)-N-ethylethanaminium chloride]	0.019 ± 0.003 µM		33 ± 13 µM	24 ± 21 µM	5.4 ± 1.6 µM		1300 ± 70 M⁻¹ s⁻¹	176 ± 128 µM
C#CCCCOC(=O)NC(Cc1ccc(NC(=N)N)cc1)P(=O)(Oc1ccc(NC(C)=O)cc1)Oc1ccc(NC(C)=O)cc1 (stereo not drawn) [Intermediate 63, pent-4-ynyl 1-(bis(4-acetamidophenoxy)phosphoryl)-2-(4-guanidinophenyl)ethyl carbamate 2,2,2-trifluoroacetate]	0.0035 ± 0.0017 µM	40 × 10^3 ± 8 × 10^3 * M^−1 s^−1	24 ± 4 µM	2.1 ± 0.2 µM	1.4 ± 0.1 µM	70% @ 250		
CCN(CC)c1ccc2c(-c3ccccc3C(=O)N3CCN(C(=O)CCCCCCCn4cc(CCCOC(=O)NC(Cc5ccc(NC(=N)N)cc5)P(=O)(Oc5ccccc5)Oc5ccccc5)nn4)CC3)c3ccc(=[N+](CC)CC)cc-3oc2c1.O=C(O)C(F)(F)F.[Cl-] (stereo not drawn) [Final compound 4, 2,2,2-trifluoroacetic acid, N-(6-(diethylamino)-9-(2-(4-(8-(4-(3-(((1-(diphenoxyphosphoryl)-2-(4-guanidinophenyl)ethyl)carbamoyl)oxy)propyl)-1H-1,2,3-triazol-1-yl)octanoyl)piperazine-1-carbonyl)phenyl)-3H-xanthen-3-ylidene)-N-ethylethanaminium chloride]	0.025 ± 0.007 µM		8 ± 1 µM	3.5 ± 0.8 µM	4.6 ± 2.3 µM		4900 ± 90 M⁻¹ s⁻¹	65 ± 14 µM
2-((1E,3E,5E)-5-(1-(6-((2-(4-(3-(((1-(diphenoxyphosphoryl)-2-(4-guanidino phenyl)ethyl)carbamoyl)oxy)propyl)-1H-1,2,3-triazol-1-yl)ethyl)amino)-6-oxohexyl)-3,3-dimethyl indolin-2-ylidene)penta-1,3-dien-1-yl)-1,3,3-trimethyl-3H-indol-1-ium [Final compound 9]	0.0589 ± 0.0017 µM			> 2.5 µM	> 2.5 µM		1600 ± 100 M⁻¹ s⁻¹	
